Measurements reported in article PMC3369547, “Antimicrobial Constituents of Artemisia afra Jacq. ex Willd. against Periodontal Pathogens” (Evidence-based Complementary and Alternative Medicine : eCAM, 2012).
≈ marks a conversion by molar mass, not a printed value. Read-outs that look alike come from different tables or passages of the source.

Columns and labels:
[1] = tested on: Actinomyces naeslundii (ATCC 19039); experiment: Microdilution MIC/MMC (INT) against Actinomyces naeslundii; assay type: cell-based; settings: A.n, Gram +ve, table title says mg/mL; for MBC: MMC in title
Procedure: (§1) The microorganisms used in this study include Actinomyces naeslundii (ATCC 19039), Actinomyces israelii (ATCC 10049), Aggregatibacter actinomycetemcomitans (ATCC 33384), Candida albicans (Med I), Porphyromonas gingivalis (ATCC 33277), Prevotella intermedia (ATCC 25611), and Streptococcus mutans (ATCC 25175). Bacteria were grown in the Casein-peptone Soy Agar medium (CASO) (Merck SA (Pty) Ltd.) under anaerobic conditions in a jar with anaerocult A (Merck SA (Pty) Ltd.), at 37°C for 48 hours. Sabouraud Dextrose Agar medium (SDA) (Merck SA (Pty) Ltd.) was used for the culturing of Candida albicans and incubated at 37°C for 24 hours under aerobic conditions. Subculturing was done once weekly.
(§2) The microdilution technique using 96-well microplates was used to obtain the MIC and MMC values of the crude extract against microorganisms under study. The extract was serially diluted in the 96-well plate with 48 hours old microorganisms (5 × 10^6 CFU/mL) grown at 37°C and the final concentration of extract and positive control (CHX) ranged from 25.0 mg/mL to 0.8 mg/mL. Microbial growth was indicated by adding 40 μL of (0.2 mg/mL) p-iodonitrotetrazolium violet (INT) (Sigma-Aldrich, South Africa) to microplate wells and incubated at 37°C for 48 hours. MIC was defined as the lowest concentration that inhibited the colour change of INT. […] These suspensions were reincubated at 37°C for 48 hours. The MMC was determined as the lowest concentration of extract which inhibited 100% growth of microorganisms.

[2] = tested on: Actinomyces israelii (ATCC 10049); experiment: Microdilution MIC/MMC (INT) against Actinomyces israelii; assay type: cell-based; settings: A.i, Gram +ve, table title says mg/mL; for MBC: MMC in title
Procedure: as §1, §2

[3] = tested on: Aggregatibacter actinomycetemcomitans (ATCC 33384); experiment: Microdilution MIC/MMC (INT) against Aggregatibacter actinomycetemcomitans; assay type: cell-based; settings: A.a, Gram –ve, table title says mg/mL; for MBC: MMC in title
Procedure: as §1, §2

[4] = tested on: Prevotella intermedia (ATCC 25611); experiment: Microdilution MIC/MMC (INT) against Prevotella intermedia; assay type: cell-based; settings: P.i, Gram –ve, table title says mg/mL; for MBC: MMC in title
Procedure: as §1, §2

[5] = tested on: Porphyromonas gingivalis (ATCC 33277); experiment: Microdilution MIC/MMC (INT) against Porphyromonas gingivalis; assay type: cell-based; settings: P.g, Gram –ve, table title says mg/mL; for MBC: MMC in title
Procedure: as §1, §2

Candida albicans (Med I) = experiment: Microdilution MIC/MMC (INT) against Candida albicans; assay type: cell-based; settings: C.a, Yeast, table title says mg/mL; for MBC: MMC in title
Procedure: as §1, §2

[6] = DPPH free radical scavenging assay; assay type: biochemical; settings: 37°C, 30 min, 517 nm
Procedure: The free radical scavenging activity was measured using 1, 1 diphenyl-2-picryl-hydraxyl (DPPH) assay with slight modifications. The ethanol extract of A. afra and Vitamin C (positive control) 1000 μg/mL (20 μL) was added in the first three wells of a 96-well plate containing 200 μL of distilled water to make up final concentration of 100 μg/mL and the remaining wells were filled with 110 μL of distilled water. The first raws containing the extract/compounds were serially diluted to wells which contain 110 μL of distilled water, and later, 90 μL of methanolic solution of DPPH ([…]) was added to all the wells. The final concentrations of the extract/compounds ranged from 100 to 0.8 μg/mL. The plates were incubated at 37°C for 30 min and the absorbance was measured at 517 nm using the ELISA plate reader. The percent radical scavenging activity by A. afra was determined by comparison with ethanol (blank). The inhibition ratio was calculated as follows: % DPPH radical-scavenging = (AC-AS)/AC × 100, where AC is absorbance of the control solution (containing only DPPH solution), and AS is the absorbance of the sample in DPPH solution. The percentage of DPPH radical-scavenging was plotted against the plant extract/compounds concentrations (μg/mL) to determine the concentration of extract/compound required to scavenge DPPH by 50% (EC50).

oral microorganisms = experiment: Microdilution MIC/MMC, summary over tested microbial species; assay type: cell-based; settings: against A. israelii and A. naeslundii; read-out: lowest MIC and MMC value
Procedure: as §1, §2

[7] = XTT cell proliferation (cytotoxicity) assay on McCoy cells; assay type: cell-based; settings: mouse
Procedure: Extract and compounds were dissolved in dimethyl sulfoxide (DMSO) and stored at −20°C. All tested compounds were diluted to the final concentration with RPMI 1640 and control cultures were diluted with 0.1% DMSO.
McCoy cells were maintained in monolayer culture at 37°C and 5% CO2 with 10% […] Medium, 10 μg/mL of penicillin, 10 μg/mL, streptomycin, 40 μg/mL gentamycin, and 0.25 μg/mL fungizone.
A microtiter plate with McCoy cells was used for testing all the ethanol extracts for cytotoxicity following the method of [26]. Cytotoxicity was measured by the XTT (sodium 3′-[1-(phenyl amino-carbonyl)-3,4-tetrazolium]-bis-[4-methoxy-6-nitro] benzene sulfonic acid hydrate) method using a cell proliferation kit II (Roche Diagnostics GmbH). Hundred microlitres of McCoy cells (1 × 10^5 mL) was seeded onto a microtiter plate and incubated for 24 h to allow the cells to attach to the bottom of the plate. Dilution series were made of the extract and compound and the various concentrations (400 to 3.1 μg/mL) were added to the microtitre plate and incubated for 48 h. The XTT reagents were added to a final concentration of 0.3 mg/mL and the cells were incubated for 1-2 hours. The positive drug control (Zearalenone) at concentrations range of (10 μg/mL to 0.6 μg/mL) was included in the assay. After incubation the absorbance of the colour was spectrophotometrically quantified using an ELISA plate reader, which measured the optical density at 490 nm with a reference wavelength of 690 nm. The assay was carried out in triplicate.

lung cancer (A549) cell = tested on: lung cancer (A549) cell; design: method as in PMID 15246561; settings: A549 cells; read-out: IC50 cell proliferation; cited from earlier work
[8] = Actinomyces naeslundii, ATCC19039
[9] = Actinomyces israelii, ATCC10049, read-out: MBC
[10] = Actinomyces israelii, ATCC10049, read-out: MIC
[11] = Aggregatibacter actinomycetemcomitans, ATCC33384
[12] = Prevotella intermedia, ATCC25611
[13] = Prevotella intermedia, ATCC25611, read-out: MIC
[14] = Porphyromonas gingivalis, ATCC33277
[15] = Actinomyces israelii, ATCC10049

MIC [1, 8]	MIC [2, 10]	MIC [3, 11]	MIC [4, 13]	MIC (Candida albicans (Med I))	DPPH scavenging IC50 [6]	MIC [5, 14]	Molecule	MBC [2, 9]	MBC [3, 11]	MBC [4, 12]	MBC [5, 14]	MBC (Candida albicans (Med I))	MBC [1, 8]	also measured
1000 µg/mL (≈ 2340 µM)	> 1 µg/mL	> 1000 µg/mL	> 1 µg/mL	> 1000 µg/mL	–	–	C[C@H]1[C@H](C)CC[C@]2(C)CC[C@]3(C)C(=CC[C@@H]4[C@@]5(C)CC[C@H](O)C(C)(C)[C@@H]5CC[C@]43C)[C@H]12 [compound 4, α-amyrin]	> 1 µg/mL	> 1000 µg/mL	> 1000 µg/mL	> 1000 µg/mL	> 1000 µg/mL	–	MBC ([1]; Actinomyces naeslundii, ATCC19039, read-out: MBC): > 1 µg/mL; MIC ([5]; Porphyromonas gingivalis, ATCC33277, read-out: MIC): > 1 µg/mL
–	–	–	–	–	1.22 µg/mL	–	O=C1O[C@H]([C@@H](O)CO)C(O)=C1O [vitamin C, reference compound]	–	–	–	–	–	–	–
1000 µg/mL (≈ 3520 µM)	–	> 1000 µg/mL	–	> 1000 µg/mL	2.39 µg/mL	1000 µg/mL (≈ 3520 µM)	COc1ccc(-c2cc(=O)c3c(O)cc(O)cc3o2)cc1 [compound 1, acacetin]	–	> 1000 µg/mL	> 1000 µg/mL	> 1000 µg/mL	> 1000 µg/mL	1000 µg/mL (≈ 3520 µM)	MBC [2, 15]: 500 µg/mL (≈ 1760 µM); MIC [2, 15]: 250 µg/mL (≈ 879 µM); MIC [4, 12]: 1000 µg/mL (≈ 3520 µM); MIC (oral microorganisms): 250 µg/mL (≈ 879 µM); IC50 at 48 h [7]: 35.4 µg/mL (≈ 125 µM); IC50 (lung cancer (A549) cell): 9.46 µM

Second part, the molecule before the results:

Molecule	MIC [1, 8]	MIC [2, 10]	MIC [3, 11]	MIC [4, 13]	MIC (Candida albicans (Med I))	DPPH scavenging IC50 [6]	MIC [5, 14]	MBC [2, 9]	MBC [3, 11]	MBC [4, 12]	MBC [5, 14]	MBC (Candida albicans (Med I))	MBC [1, 8]	also measured
phytol [compound 5]	–	–	–	–	> 1000 µg/mL	–	–	–	–	–	–	> 1000 µg/mL	–	MBC [1]: >1.0 µg/mL; MIC [1]: >1.0 µg/mL; MBC [2]: >1.0 µg/mL; MIC [2]: >1.0 µg/mL; MBC [3]: > 1000 µg/mL; MIC [3]: > 1000 µg/mL; MBC [4]: > 1000 µg/mL; MIC [4]: >1.0 µg/mL; MBC [5]: > 1000 µg/mL; MIC [5]: >1.0 µg/mL
[H]/N=C(\N/C(=N/[H])NCCCCCCNC(=N)NC(=N)Nc1ccc(Cl)cc1)Nc1ccc(Cl)cc1 [Chlorhexidine, chlorhexidine, reference compound]	1600 µg/mL (≈ 3170 µM)	6.3 µg/mL (≈ 12.5 µM)	–	6.3 µg/mL (≈ 12.5 µM)	–	–	1600 µg/mL (≈ 3170 µM)	6.3 µg/mL (≈ 12.5 µM)	–	–	–	–	1600 µg/mL (≈ 3170 µM)	MBC ([3]; Aggregatibacter actinomycetemcomitans, ATCC33384, read-out: MBC): 1.6 µg/mL (≈ 3.17 µM); MIC ([3]; Aggregatibacter actinomycetemcomitans, ATCC33384, read-out: MIC): 1.6 µg/mL (≈ 3.17 µM); MBC ([4]; Prevotella intermedia, ATCC25611, read-out: MBC): 6.3 µg/mL (≈ 12.5 µM); MBC ([5]; Porphyromonas gingivalis, ATCC33277, read-out: MBC): 1.6 µg/mL (≈ 3.17 µM); MBC (Candida albicans (Med I); read-out: MBC): 1.25 µg/mL (≈ 2.47 µM); MIC (Candida albicans (Med I); read-out: MIC): 6.3 µg/mL (≈ 12.5 µM)
